Assay results reported in patent US20230174571A1, “METHOD OF TREATING SHIP1-MEDIATED DISEASES USING PELOROL DERIVATIVES” (Zebrapeutics Inc., priority 2020, published 2023).

How the values were obtained:
[1] = molecular target: T1, Clover-SHIP1 and mRuby2-STAT3 (Mus musculus, UniProt Q9ES52); assay: Acceptor photobleaching FRET analysis; format: cell-based; conditions: J17 SHIP1−/− cells expressing Clover-SHIP1/mRuby2-STAT3; 1 minute; 100 ng/ml IL10, IL6 or 20 μM I-2
T1 construct: expressed in transfected cells; host or cells: J17 (SHIP1-/- mouse macrophage line), lentiviral transduction
Protocol: Acceptor Photobleaching FRET analysis. J17 cells expressing Clover-SHIP1 and/or mRuby2-STAT3 were seeded at 50×10^4 cells per well in 8-well Ibidi p-Slides (Ibidi GmbH, Martinsried, Germany). After overnight incubation, cells were serum-starved with Mac media containing 1% serum for 3 hours before media replacement with Leibovitz's (L-15) media (Invitrogen, Burlington, ON) supplemented with 1% serum, 10 μM β-mercaptoethanol, 150 μM monothioglycolate and 1 mM L-glutamine for confocal microscopy imaging. Cells were imaged on a Leica SP8X on DMi8 confocal microscope system with a 63×/1.3 Gly HC PL APO CS2 objective using a white light laser line with 488 nm for donor excitement and 555 nm for acceptor excitement. Photobleaching FRET analysis was performed by measuring Clover-SHIP1 donor fluorescence intensity before and after bleaching the acceptor, mRuby2-STAT3, within a field of cells ‘region of interest’ (ROI), at 100% laser intensity for 60 frames. Acceptor photobleaching was performed first in resting cells then at 1 minute (±5 seconds) following ‘mock’ stimulation with L-15 media, or L-15 media containing 100 ng/ml IL10, IL6 or 20 μM compound I-2. Donor and acceptor fluorescence intensity of individual cells within the bleached ROI was quantified before and after bleaching. Percentage FRET efficiency was calculated as % FRETeff=100×(Dpost−Dpre)/Dpost where Dpre and Dpost represent Clover-SHIP1 donor fluorescence intensity before and after bleaching, respectively.

SHIP1 and STAT3 = molecular target: T2, SHIP1 and STAT3 (Mus musculus, UniProt Q9ES52, Y190F); assay: In vitro pull down assay of His6-SHIP1 with STAT3; format: cell-based; conditions: Y190F vs wild-type SHIP1 cells; 5 minutes stimulation
T2 construct: expressed in transfected cells; host or cells: J17 (SHIP1-/- mouse BMDM-derived line), lentiviral transduction
T2 sequence (Q9ES52 1-1191 Y190F): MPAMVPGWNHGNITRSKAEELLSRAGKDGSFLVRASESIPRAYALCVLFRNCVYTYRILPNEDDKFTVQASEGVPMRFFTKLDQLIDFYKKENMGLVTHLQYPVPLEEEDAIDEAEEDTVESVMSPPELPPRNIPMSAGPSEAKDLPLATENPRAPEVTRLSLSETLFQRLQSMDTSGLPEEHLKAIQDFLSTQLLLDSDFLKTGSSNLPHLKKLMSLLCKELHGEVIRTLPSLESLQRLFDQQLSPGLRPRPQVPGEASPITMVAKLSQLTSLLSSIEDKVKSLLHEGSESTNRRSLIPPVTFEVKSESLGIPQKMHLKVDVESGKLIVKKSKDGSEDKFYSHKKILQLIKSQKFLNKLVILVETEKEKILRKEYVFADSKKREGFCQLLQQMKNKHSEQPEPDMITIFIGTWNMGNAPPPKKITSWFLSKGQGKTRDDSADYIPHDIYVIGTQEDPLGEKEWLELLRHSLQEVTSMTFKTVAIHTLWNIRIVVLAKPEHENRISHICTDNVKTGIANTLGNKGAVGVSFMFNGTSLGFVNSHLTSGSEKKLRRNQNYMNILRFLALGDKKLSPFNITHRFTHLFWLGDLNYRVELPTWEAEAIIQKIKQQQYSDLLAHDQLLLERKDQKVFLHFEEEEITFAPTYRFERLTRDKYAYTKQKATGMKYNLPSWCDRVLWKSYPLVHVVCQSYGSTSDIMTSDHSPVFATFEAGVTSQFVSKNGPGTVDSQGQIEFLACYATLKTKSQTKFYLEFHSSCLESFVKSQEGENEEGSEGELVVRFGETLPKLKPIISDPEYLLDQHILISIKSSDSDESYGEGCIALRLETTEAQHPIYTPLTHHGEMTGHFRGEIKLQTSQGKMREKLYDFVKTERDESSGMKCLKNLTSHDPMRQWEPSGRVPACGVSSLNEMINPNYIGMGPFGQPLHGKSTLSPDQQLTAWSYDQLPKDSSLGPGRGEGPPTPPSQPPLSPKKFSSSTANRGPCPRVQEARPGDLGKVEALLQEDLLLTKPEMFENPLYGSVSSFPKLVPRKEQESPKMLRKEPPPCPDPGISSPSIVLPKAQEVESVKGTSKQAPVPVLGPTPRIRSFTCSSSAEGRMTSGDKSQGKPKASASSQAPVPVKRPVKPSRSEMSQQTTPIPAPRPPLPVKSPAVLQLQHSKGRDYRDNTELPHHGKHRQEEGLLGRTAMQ
Protocol: In vitro pull down assay. J17 His6-SHIP1 and Y190F cells were seeded at 2×10^6 cells per well in a 6-well plate. After overnight incubation, fresh cell media was added for 30 minutes before stimulation with 100 ng/ml IL10, […] or 20 μM compound I-2 for 5 minutes. Cells were lysed with Protein Solubilization Buffer (PSB, 50 mM Hepes, pH 7.5, […], 10 mM Na Pyrophosphate, 2 mM NaVO4, 2 mM Na Molybdate, 2 mM EDTA) containing 1% octylglucoside, 0.01 M imidazole, and protease inhibitor cocktail (Roche Diagnostics, Laval, QC) for 30 minutes at 4° C. and centrifuged at 10000 rpm for 15 minutes. EDTA resistant Ni beads (Roche Diagnostics, Laval, QC) were added to supernatants and the mixture incubated at 4° C. for 1 hour before spinning down and washing of beads three times with 0.1% octylglucoside wash buffer in PSB. Bead samples and starting material cell lysates were separated on a 7.5% SDS-PAGE gel.
Immunoblotting. Protein lysates were separated on SDS-PAGE gels and transferred onto polyvinylidene fluoride (PVDF) membrane (Millipore, Etobicoke, ON). Membranes were blocked and probed, where appropriate, with the following primary antibodies overnight: SHIP1 (P1C1) (Santa Cruz Biotechnology), pSHIP1 (Y190) (Kinexus), STAT3 (9D8) (ThermoFisher Scientific), pSTAT3 (Y705) (Thermo Fisher Scientific), STAT1 (BD Transduction Laboratories), pSTAT1 (Y701) (Upstate Biotechnology), GAPDH and actin (Sigma-Aldrich). Membranes were developed with either Alexa Fluor® 660 anti-mouse IgG or Alexa Fluor® 680 anti-rabbit IgG antibodies (Thermo Fisher Scientific) and imaged using a LI-COR Odyssey Imager.

T1 sequence (Q9ES52 whole entry): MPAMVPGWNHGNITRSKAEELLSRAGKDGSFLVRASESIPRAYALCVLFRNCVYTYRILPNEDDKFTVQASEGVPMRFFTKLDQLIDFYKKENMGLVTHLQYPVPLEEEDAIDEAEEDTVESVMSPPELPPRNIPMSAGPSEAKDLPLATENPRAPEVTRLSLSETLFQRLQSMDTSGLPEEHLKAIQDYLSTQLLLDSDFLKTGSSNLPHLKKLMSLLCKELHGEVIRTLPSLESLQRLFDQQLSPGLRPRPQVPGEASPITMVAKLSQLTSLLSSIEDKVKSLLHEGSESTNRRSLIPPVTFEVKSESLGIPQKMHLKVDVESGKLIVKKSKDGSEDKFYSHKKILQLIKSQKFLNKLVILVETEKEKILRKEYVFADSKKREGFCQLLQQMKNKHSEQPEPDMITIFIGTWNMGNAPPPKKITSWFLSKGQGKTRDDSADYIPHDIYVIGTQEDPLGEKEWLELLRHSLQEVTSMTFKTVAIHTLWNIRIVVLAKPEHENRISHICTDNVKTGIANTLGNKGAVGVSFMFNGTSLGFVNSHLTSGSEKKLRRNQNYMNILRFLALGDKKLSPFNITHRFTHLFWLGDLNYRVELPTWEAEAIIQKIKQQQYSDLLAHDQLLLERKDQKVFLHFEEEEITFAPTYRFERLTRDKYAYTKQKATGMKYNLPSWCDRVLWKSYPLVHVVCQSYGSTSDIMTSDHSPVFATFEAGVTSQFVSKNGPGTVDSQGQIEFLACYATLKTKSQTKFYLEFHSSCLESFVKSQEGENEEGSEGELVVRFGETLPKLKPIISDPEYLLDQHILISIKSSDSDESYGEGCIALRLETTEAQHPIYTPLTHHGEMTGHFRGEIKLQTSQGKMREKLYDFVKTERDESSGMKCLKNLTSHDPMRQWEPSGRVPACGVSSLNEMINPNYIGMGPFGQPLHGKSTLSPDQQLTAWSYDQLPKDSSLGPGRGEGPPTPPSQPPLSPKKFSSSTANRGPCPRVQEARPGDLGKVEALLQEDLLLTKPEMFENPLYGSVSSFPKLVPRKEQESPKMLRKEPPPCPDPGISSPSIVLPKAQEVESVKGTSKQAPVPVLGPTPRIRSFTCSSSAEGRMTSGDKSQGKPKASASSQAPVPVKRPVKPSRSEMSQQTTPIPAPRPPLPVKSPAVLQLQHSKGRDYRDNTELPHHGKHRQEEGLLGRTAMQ
T1 sequence (P42227 whole entry partner): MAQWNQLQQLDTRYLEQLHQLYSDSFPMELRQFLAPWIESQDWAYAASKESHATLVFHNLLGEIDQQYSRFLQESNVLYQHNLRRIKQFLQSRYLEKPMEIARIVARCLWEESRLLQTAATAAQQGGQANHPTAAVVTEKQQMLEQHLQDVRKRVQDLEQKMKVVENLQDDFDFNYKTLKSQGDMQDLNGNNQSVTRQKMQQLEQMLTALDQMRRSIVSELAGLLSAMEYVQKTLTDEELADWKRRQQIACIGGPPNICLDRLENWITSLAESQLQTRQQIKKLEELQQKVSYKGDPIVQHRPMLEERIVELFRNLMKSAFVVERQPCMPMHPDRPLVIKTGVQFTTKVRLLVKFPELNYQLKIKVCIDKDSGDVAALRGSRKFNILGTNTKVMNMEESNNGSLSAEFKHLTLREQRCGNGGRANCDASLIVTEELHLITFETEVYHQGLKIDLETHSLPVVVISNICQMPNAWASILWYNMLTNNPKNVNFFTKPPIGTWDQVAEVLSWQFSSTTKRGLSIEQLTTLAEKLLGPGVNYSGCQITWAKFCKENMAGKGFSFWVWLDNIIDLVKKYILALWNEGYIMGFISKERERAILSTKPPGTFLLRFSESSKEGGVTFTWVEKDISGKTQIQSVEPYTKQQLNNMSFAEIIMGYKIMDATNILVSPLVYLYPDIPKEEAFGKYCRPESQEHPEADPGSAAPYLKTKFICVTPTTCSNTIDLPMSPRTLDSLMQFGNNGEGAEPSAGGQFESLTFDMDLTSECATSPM

Row | Compound | Clover-mRuby2 FRET signal [1] | reduction of Y190F SHIP1 mutant ability to interact with STAT3 (SHIP1 and STAT3)
1 | CC12CCC3C(C)(C)C(N)CCC3(C)C1Cc1cc(O)cc(O)c12 (stereo not shown) [Compound I-2] | increases | 2 fold
2 | IL10: anti-inflammatory cytokine interleukin-10 | increases | 2 fold
